Structures are written as SMILES. Structures can show the parent of a compound that is named as a salt.

The first assay addresses T1, IRAK4 (Homo sapiens, UniProt Q9NWZ3).
T1 sequence (Q9NWZ3 1-460): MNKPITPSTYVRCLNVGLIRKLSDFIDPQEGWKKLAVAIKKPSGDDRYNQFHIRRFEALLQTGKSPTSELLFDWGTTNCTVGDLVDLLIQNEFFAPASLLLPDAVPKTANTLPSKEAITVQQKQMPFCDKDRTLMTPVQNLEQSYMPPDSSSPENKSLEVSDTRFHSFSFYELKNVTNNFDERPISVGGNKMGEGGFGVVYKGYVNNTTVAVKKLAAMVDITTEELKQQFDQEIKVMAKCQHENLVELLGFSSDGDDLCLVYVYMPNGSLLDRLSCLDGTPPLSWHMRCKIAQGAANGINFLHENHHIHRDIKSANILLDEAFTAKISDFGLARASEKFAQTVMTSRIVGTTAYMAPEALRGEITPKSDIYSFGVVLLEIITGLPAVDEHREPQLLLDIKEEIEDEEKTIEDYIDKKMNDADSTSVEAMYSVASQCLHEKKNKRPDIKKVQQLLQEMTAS
Nature of the assay: biochemical.
Conditions: not given
The IC50 is the concentration that gives 50% inhibition. Low readings indicate inhibition by little substance, high ones a need for much substance. Take `COc1cccn2ncc(NC(=O)c3cn4cc(C56COC(C)(C5)C6)nc4c(OC(C)C)n3)c12` [Example 401, 8-Isopropoxy-N-(4-methoxypyrazolo[1,5-a]pyridin-3-yl)-2-(1-methyl-2-oxabicyclo[2.1.1]hexan-4-yl)imidazo[1,2-a]pyrazine-6-carboxamide]: the IC50 was found to be 0.0002 µM.

Compound `CC(C)Oc1nc2nc(C34COC(CF)(C3)C4)cn2cc1C(=O)Nc1cccn(C(F)F)c1=O` [Example 381, N-(1-(difluoromethyl)-2-oxo-1,2-dihydropyridin-3-yl)-2-(1-(fluoromethyl)-2-oxabicyclo[2.1.1]hexan-4-yl)-7-isopropoxyimidazo[1,2-a]pyrimidine-6-carboxamide] had an IC50 of 0.0004 µM.

In turn, `COc1cccc(NC(=O)c2cn3cc(C4CC4)nc3cc2OC2CCCC2)n1` [Example 465, 7-(Cyclopentyloxy)-2-cyclopropyl-N-(6-methoxypyridin-2-yl)imidazo[1,2-a]pyridine-6-carboxamide] displayed a half-inhibitory concentration (IC50) of 0.0079 µM.

The compound `O=C(Nc1cccc(C(F)F)n1)c1cn2cc(C3CCOCC3)nc2cn1` [Example 83] gave an IC50 of 0.264 µM.

The compound `COc1cc2nc(C3CCOCC3)cn2cc1C(=O)Nc1ccnc(C)c1OC` [Example 201] registered an IC50 of 0.378 µM.

`COc1ncccc1NC(=O)c1cn2cc(C34COC(C)(C3)C4)nc2c(OC2CCC2)n1` [Example 347, 8-Cyclobutoxy-N-(2-methoxypyridin-3-yl)-2-(1-methyl-2-oxabicyclo[2.1.1]hexan-4-yl)imidazo[1,2-a]pyrazine-6-carboxamide]: the IC50 came out at 0.0006 µM.

Take `CC(C)Oc1nc2nc([C@]34CC[C@](C)(C3)OC4)cn2cc1C(=O)Nc1cccn(C)c1=O` (single isomer, unassigned) [Example 653]: the IC50 was 0.0011 µM.

As for `CC(C)Oc1nc2nc(C34COC(C)(C3)C4)cn2cc1C(=O)Nc1ccn2nccc2n1` [Example 372, 7-Isopropoxy-2-(1-methyl-2-oxabicyclo[2.1.1]hexan-4-yl)-N-(pyrazolo[1,5-a]pyrimidin-5-yl)imidazo[1,2-a]pyrimidine-6-carboxamide], 0.0576 µM corresponded to half-maximal inhibition (IC50).

`CC(C)Oc1cc2nc(C34CCC(C)(C3)OC4)cn2cc1C(=O)Nc1cccn(C)c1=O` (stereo not shown) [Example 505, 7-Isopropoxy-N-(1-methyl-2-oxo-1,2-dihydropyridin-3-yl)-2-(1-methyl-2-oxabicyclo[2.2.1]heptan-4-yl)imidazo[1,2-a]pyridine-6-carboxamide] yielded a half-inhibitory concentration (IC50) of 0.0005 µM.

In turn, `COc1ncccc1NC(=O)c1cn2cc(C34COC(C)(C3)C4)nc2c(OC)n1` [Example 232] returned a half-maximal inhibitory concentration (IC50) of 0.0031 µM.

`COc1cc2nc(C3CCOCC3)cn2cc1C(=O)Nc1cccc2ccnn12` [Example 57, 7-Methoxy-N-(pyrazolo[1,5-a]pyridin-7-yl)-2-(tetrahydro-2H-pyran-4-yl)imidazo[1,2-a]pyridine-6-carboxamide] displayed an IC50 of 0.0041 µM.

In turn, `CC(C)Oc1nc(C(=O)Nc2cccc(C(F)F)n2)cn2cc(C34COC(CF)(C3)C4)nc12` [Example 338, N-(6-(difluoromethyl)pyridin-2-yl)-2-(1-(fluoromethyl)-2-oxabicyclo[2.1.1]hexan-4-yl)-8-isopropoxyimidazo[1,2-a]pyrazine-6-carboxamide] gave an IC50 of 0.0105 µM.

Turning to `CCOc1nc(C(=O)Nc2cccc3c2CCC3)cn2cc(C3CCOCC3)nc12` [Example 211], the IC50 amounted to 0.0116 µM.

Turning to `CC(C)Oc1nc2nc(C34COC(C)(C3)C4)cn2cc1C(=O)Nc1ccn(C(F)F)n1` [Example 361, N-(1-(difluoromethyl)-1H-pyrazol-3-yl)-7-isopropoxy-2-(1-methyl-2-oxabicyclo[2.1.1]hexan-4-yl)imidazo[1,2-a]pyrimidine-6-carboxamide], it took 0.0037 µM to reach half-maximal inhibition (IC50).

`COc1nc(C(=O)Nc2cccc(C(F)F)n2)cn2cc(C34COC(C)(C3)C4)nc12` [Example 231, N-(6-(difluoromethyl)pyridin-2-yl)-8-methoxy-2-(1-methyl-2-oxabicyclo[2.1.1]hexan-4-yl)imidazo[1,2-a]pyrazine-6-carboxamide] gave an IC50 of 0.0071 µM.

The compound `CC(C)Oc1nc2nc(C34COC(CF)(C3)C4)cn2cc1C(=O)Nc1cccc(C(F)F)n1` [Example 564, N-(6-(difluoromethyl)pyridin-2-yl)-2-(1-(fluoromethyl)-2-oxabicyclo[2.1.1]hexan-4-yl)-7-isopropoxyimidazo[1,2-a]pyrimidine-6-carboxamide] gave an IC50 of 0.0003 µM.

On to `CC12CC(c3cn4cc(C(=O)Nc5cccn(C(F)F)c5=O)c(OCC5CC5(F)F)cc4n3)(CO1)C2` (stereo not shown) [Example 452, 7-((2,2-Difluorocyclopropyl)methoxy)-N-(1-(difluoromethyl)-2-oxo-1,2-dihydropyridin-3-yl)-2-(1-methyl-2-oxabicyclo[2.1.1]hexan-4-yl)imidazo[1,2-a]pyridine-6-carboxamide], for which the IC50 came to 0.0008 µM.

In turn, `CC(C)Oc1nc2nc(C34COC(C)(C3)C4)cn2cc1C(=O)Nc1cnn2cc(C(F)F)cnc12` [Example 369, N-(6-(difluoromethyl)pyrazolo[1,5-a]pyrimidin-3-yl)-7-isopropoxy-2-(1-methyl-2-oxabicyclo[2.1.1]hexan-4-yl)imidazo[1,2-a]pyrimidine-6-carboxamide] showed an IC50 of 0.0008 µM.

In the case of `CCO[C@H]1C[C@@H](Oc2cc3nc(C4CCOCC4)cn3cc2C(=O)Nc2cccc(C(F)F)n2)C1` [Example 436, N-(6-(difluoromethyl)pyridin-2-yl)-7-((1s,3s)-3-ethoxycyclobutoxy)-2-(tetrahydro-2H-pyran-4-yl)imidazo[1,2-a]pyridine-6-carboxamide], the IC50 turned out to be 0.0008 µM.

`COCCn1ccc(NC(=O)c2cn3cc(C45COC(C)(C4)C5)nc3cc2OC(C)C)n1` [Example 314, 7-Isopropoxy-N-(1-(2-methoxyethyl)-1H-pyrazol-3-yl)-2-(1-methyl-2-oxabicyclo[2.1.1]hexan-4-yl)imidazo[1,2-a]pyridine-6-carboxamide] came in with an IC50 of 0.0258 µM.

On to `CCn1ccc(NC(=O)c2cn3cc(C45CCC(C)(C4)OC5)nc3cc2OC(C)C)n1` (stereo not shown) [Example 508, N-(1-ethyl-1H-pyrazol-3-yl)-7-isopropoxy-2-(1-methyl-2-oxabicyclo[2.2.1]heptan-4-yl)imidazo[1,2-a]pyridine-6-carboxamide], for which half-maximal inhibition (IC50) required 0.0023 µM.

The compound `CC(C)Oc1cc2nc(C(F)F)cn2cc1C(=O)Nc1cccc(C(F)F)n1` [Example 99] came in with an IC50 of 0.0073 µM.

As to `CCc1ncsc1NC(=O)c1cn2cc(C34CCC(C)(C3)OC4)nc2cc1OC(C)C` (stereo not shown) [Example 511, N-(4-ethylthiazol-5-yl)-7-isopropoxy-2-(1-methyl-2-oxabicyclo[2.2.1]heptan-4-yl)imidazo[1,2-a]pyridine-6-carboxamide], the IC50 is 0.0042 µM.

`CC12CC(c3cn4cc(C(=O)Nc5cccn(C(F)F)c5=O)c(OCCOC(F)F)cc4n3)(CO1)C2` [Example 446, 7-(2-(Difluoromethoxy)ethoxy)-N-(1-(difluoromethyl)-2-oxo-1,2-dihydropyridin-3-yl)-2-(1-methyl-2-oxabicyclo[2.1.1]hexan-4-yl)imidazo[1,2-a]pyridine-6-carboxamide] yielded a 50% inhibitory concentration (IC50) of 0.0046 µM.

The compound `CC(C)Oc1nc2nc(C34CCOC(C)(C3)C4)cn2cc1C(=O)Nc1cccc(C(F)F)n1` [Example 236] showed an IC50 of 0.0002 µM.

In turn, `CC(C)Oc1nc2nc([C@@]34CC[C@@](C)(C3)OC4)cn2cc1C(=O)Nc1cccc(C(F)F)n1` (single isomer, unassigned) [Example 576] returned a 50% inhibitory concentration (IC50) of 0.0002 µM.

Compound `CCOc1nc(C(=O)Nc2cccc(OC)n2)cn2cc(C34COC(C)(C3)C4)nc12` [Example 486, 8-Ethoxy-N-(6-methoxypyridin-2-yl)-2-(1-methyl-2-oxabicyclo[2.1.1]hexan-4-yl)imidazo[1,2-a]pyrazine-6-carboxamide] registered an IC50 of 0.0075 µM.

`CC(C)Oc1c(C(=O)Nc2cccc(-c3cnn(C)c3)n2)cn2cc(C34COC(C)(C3)C4)nc2c1F` [Example 393, 8-Fluoro-7-isopropoxy-N-(6-(1-methyl-1H-pyrazol-4-yl)pyridin-2-yl)-2-(1-methyl-2-oxabicyclo[2.1.1]hexan-4-yl)imidazo[1,2-a]pyridine-6-carboxamide] registered a 50% inhibitory concentration (IC50) of 0.0001 µM.

`CCOc1nc(C(=O)Nc2cccc(Cl)c2)cn2cc(C34COC(C)(C3)C4)nc12` [Example 495, N-(3-chlorophenyl)-8-ethoxy-2-(1-methyl-2-oxabicyclo[2.1.1]hexan-4-yl)imidazo[1,2-a]pyrazine-6-carboxamide] displayed an IC50 of 0.0088 µM.

With `COc1ncccc1NC(=O)c1cn2cc([C@@]34CC[C@@](C)(C3)OC4)nc2nc1OC(C)C` (single isomer, unassigned) [Example 578], the concentration for half-maximal inhibition (IC50) was determined as 0.0002 µM.

The assay is the same for the next values; noted with them: IRAK4 Biochemical Assay (1 mM ATP, 2 h) IC50 (μM), 1 mM ATP, 2 h, 100 pM IRAK4.
Compound `COc1nc(C(=O)Nc2cccc(C(F)(F)F)n2)cn2cc(C3CCOCC3)nc12` [Example 76] had an IC50 of 0.0095 µM.

`COc1cc2nc(C34CC(OC)(C3)C4)cn2cc1C(=O)Nc1ccccn1` [Example 2] displayed an IC50 of 0.0586 µM.

As for `CC(C)Oc1cc2nc(C34COC(C)(C3)C4)cn2cc1C(=O)Nc1cccc(C#N)c1F` [Example 257, N-(3-cyano-2-fluorophenyl)-7-isopropoxy-2-(1-methyl-2-oxabicyclo[2.1.1]hexan-4-yl)imidazo[1,2-a]pyridine-6-carboxamide trifluoroacetate], the IC50 was found to be 0.0003 µM.

In turn, `Cc1cnc2c(NC(=O)c3cn4cc(C5CC5)nc4cc3OC(C)C)cnn2c1` [Example 280, 2-Cyclopropyl-7-isopropoxy-N-(6-methylpyrazolo[1,5-a]pyrimidin-3-yl)imidazo[1,2-a]pyridine-6-carboxamide trifluoroacetate] gave an IC50 of 0.0019 µM.

The values are drawn from patent US20230087118A1, “IMIDAZO[1,2-a][sequence] DERIVATIVES AND THEIR USE IN THE TREATMENT OF DISEASE” (priority 2019, published 2023).
